We go through 20 molecules from ChEMBL document CHEMBL4152230, “Discovery of N-{3-[(ethanimidoylamino)methyl]benzyl}-l-prolinamide dihydrochloride: A new potent and selective inhibitor of the inducible nitric oxide synthase as a promising agent for the therapy of malignant glioma” (Eur J Med Chem, 2018).

pIC50: −log10 of the molar value. The source made the active and inactive calls. The rule behind the calls is not given here.

Series [1] concerns the target T1, Nitric oxide synthase, inducible (Mus musculus, UniProt P29477).
T1 sequence (P29477 whole entry): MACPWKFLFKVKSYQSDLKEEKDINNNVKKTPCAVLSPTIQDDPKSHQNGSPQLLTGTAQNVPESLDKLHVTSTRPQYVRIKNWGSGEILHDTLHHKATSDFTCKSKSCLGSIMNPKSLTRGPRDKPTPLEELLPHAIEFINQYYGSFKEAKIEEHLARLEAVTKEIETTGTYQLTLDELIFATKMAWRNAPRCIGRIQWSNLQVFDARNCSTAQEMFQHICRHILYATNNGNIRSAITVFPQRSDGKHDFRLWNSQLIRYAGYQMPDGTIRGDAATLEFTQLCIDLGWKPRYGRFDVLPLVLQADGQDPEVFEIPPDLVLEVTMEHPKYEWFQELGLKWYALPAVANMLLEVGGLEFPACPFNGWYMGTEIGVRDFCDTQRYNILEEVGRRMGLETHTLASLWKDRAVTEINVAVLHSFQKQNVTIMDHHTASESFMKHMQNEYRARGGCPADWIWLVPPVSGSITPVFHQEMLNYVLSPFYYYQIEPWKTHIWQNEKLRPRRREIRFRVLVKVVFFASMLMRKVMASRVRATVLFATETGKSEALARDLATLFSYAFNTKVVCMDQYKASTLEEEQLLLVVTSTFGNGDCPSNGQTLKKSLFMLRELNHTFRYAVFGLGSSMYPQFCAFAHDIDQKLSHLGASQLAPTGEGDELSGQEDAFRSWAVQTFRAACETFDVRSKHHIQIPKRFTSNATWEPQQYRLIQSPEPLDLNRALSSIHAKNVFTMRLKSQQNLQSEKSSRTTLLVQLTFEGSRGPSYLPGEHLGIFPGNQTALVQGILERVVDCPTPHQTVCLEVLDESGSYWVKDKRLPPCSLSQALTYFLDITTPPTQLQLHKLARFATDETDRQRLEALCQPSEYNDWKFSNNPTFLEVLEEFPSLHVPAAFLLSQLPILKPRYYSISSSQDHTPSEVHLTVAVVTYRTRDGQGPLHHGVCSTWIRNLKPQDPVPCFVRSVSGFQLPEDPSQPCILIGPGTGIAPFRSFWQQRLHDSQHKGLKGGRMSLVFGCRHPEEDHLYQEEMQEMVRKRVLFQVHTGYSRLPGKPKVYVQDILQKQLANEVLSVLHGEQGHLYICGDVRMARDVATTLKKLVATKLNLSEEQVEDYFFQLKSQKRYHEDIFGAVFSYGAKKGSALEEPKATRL
In words: Inhibition of recombinant mouse iNOS using [3H]L-arginine as substrate preincubated for 15 mins followed by NADPH addition measured after 20 mins in presence of FMN/FAD by liquid scintillation counting method.

Series [2] in a line: Cytotoxicity against rat CTX/TNA2 cells assessed as inhibition of cell proliferation up to 72 hrs by MTT assay. The series is classed as cell-based. (In general: Tetrazolium assays rely on reduction of a dye to a coloured formazan, in cell work by metabolically active cells.)
Series [3] can be described thus: Cytotoxicity against rat CTX/TNA2 cells assessed as inhibition of cell proliferation at 1.5 mM after 24 hrs by MTT assay relative to control. The format is cell-based.
Series [4] in a line: Cytotoxicity against rat CTX/TNA2 cells assessed as inhibition of cell proliferation at 2 mM after 24 hrs by MTT assay relative to control. The series is classed as cell-based.
For series [5], the system named is C6. The series is described as follows: Cytotoxicity against rat C6 cells assessed as cell proliferation at 1 mM after 24 hrs by MTT assay relative to control. The series is classed as functional. The following applies: C6, 24 h, read-out: Activity.
Series [6] concerns C6. The series is described as follows: Cytotoxicity against rat C6 cells assessed as cell proliferation at 1.5 mM after 24 hrs by MTT assay relative to control. The format is functional. The following applies: C6, 24 h, read-out: Activity.
The test system of series [7] is C6. The series is described as follows: Cytotoxicity against rat C6 cells assessed as cell proliferation at 2 mM after 24 hrs by MTT assay relative to control. The format is functional. To be noted: C6, 24 h, read-out: Activity.
For series [8], the system named is C6. The series is described as follows: Cytotoxicity against rat C6 cells assessed as inhibition of cell proliferation after 24 to 48 hrs by MTT assay. The format is functional, cell-based.
Series [9] has as its system C6. In words: Cytotoxicity against rat C6 cells assessed as cell proliferation at 0.5 mM after 48 hrs by MTT assay relative to control. The following applies: C6, 48 h, read-out: Activity. The format is functional.
In series [10] the test system is C6. The series is described as follows: Cytotoxicity against rat C6 cells assessed as cell proliferation up to 2 mM after 48 hrs by MTT assay relative to control. The series is classed as functional.
For series [11], the system named is C6. In words: Cytotoxicity against rat C6 cells assessed as cell proliferation at 0.75 mM after 72 hrs by MTT assay relative to control. The series is classed as functional. The following applies: C6, 72 h, read-out: Activity.
A further series addresses T2, Nitric oxide synthase 3 (Bos taurus, UniProt P29473).
T2 sequence (P29473 whole entry): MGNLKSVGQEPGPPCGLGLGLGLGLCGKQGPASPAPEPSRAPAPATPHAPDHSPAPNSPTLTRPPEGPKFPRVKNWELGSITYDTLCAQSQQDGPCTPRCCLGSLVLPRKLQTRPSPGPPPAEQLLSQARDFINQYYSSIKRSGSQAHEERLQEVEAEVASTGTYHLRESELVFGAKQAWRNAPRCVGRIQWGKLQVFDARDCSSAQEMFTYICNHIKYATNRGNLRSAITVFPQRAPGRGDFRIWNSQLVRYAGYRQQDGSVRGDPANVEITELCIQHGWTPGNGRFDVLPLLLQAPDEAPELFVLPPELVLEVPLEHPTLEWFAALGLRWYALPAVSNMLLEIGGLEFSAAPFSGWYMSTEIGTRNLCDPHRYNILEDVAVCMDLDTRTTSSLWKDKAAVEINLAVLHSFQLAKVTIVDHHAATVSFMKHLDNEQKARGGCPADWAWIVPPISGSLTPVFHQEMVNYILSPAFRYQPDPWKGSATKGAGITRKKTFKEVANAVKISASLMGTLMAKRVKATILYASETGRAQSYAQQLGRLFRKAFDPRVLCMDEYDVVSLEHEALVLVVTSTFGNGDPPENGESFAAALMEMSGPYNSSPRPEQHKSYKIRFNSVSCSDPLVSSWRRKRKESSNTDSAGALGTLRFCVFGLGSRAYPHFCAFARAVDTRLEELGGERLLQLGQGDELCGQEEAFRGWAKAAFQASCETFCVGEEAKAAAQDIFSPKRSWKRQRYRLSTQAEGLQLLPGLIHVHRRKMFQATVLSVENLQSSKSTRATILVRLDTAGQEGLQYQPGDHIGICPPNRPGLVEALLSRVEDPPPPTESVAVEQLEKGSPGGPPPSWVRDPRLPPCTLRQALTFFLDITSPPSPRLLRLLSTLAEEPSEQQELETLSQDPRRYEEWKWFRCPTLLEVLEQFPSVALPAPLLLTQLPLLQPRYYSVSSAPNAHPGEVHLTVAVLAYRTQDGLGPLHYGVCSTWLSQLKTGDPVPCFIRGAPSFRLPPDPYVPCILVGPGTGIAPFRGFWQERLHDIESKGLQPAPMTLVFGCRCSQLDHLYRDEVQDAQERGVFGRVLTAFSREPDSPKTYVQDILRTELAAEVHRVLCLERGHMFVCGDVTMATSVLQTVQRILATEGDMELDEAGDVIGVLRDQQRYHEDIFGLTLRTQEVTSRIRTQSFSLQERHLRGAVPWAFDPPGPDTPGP
The series is described as follows: Inhibition of recombinant bovine eNOS using [3H]L-arginine as substrate preincubated for 15 mins followed by NADPH addition measured after 20 mins in presence of FMN/FAD by liquid scintillation counting method.

Series [12] can be described thus: Selectivity index, ratio of IC50 for recombinant bovine eNOS to IC50 for recombinant mouse iNOS.
For series [13], the target named is Nitric oxide synthase, inducible (Rattus norvegicus) (UniProt Q06518). The series is described as follows: Ex vivo inhibition of iNOS in mesenteric vascular arteries isolated from LPS-induced septic shock Sprague-Dawley rat model assessed as increase in noradrenaline-mediated vasoconstriction by measuring changes in perfusion pressure at 100 uM preincubated for 30 mins followed by noradrenaline treatment.
Chain of Nitric oxide synthase, inducible (Rattus norvegicus) (Q06518 whole entry, the tested form may be a part): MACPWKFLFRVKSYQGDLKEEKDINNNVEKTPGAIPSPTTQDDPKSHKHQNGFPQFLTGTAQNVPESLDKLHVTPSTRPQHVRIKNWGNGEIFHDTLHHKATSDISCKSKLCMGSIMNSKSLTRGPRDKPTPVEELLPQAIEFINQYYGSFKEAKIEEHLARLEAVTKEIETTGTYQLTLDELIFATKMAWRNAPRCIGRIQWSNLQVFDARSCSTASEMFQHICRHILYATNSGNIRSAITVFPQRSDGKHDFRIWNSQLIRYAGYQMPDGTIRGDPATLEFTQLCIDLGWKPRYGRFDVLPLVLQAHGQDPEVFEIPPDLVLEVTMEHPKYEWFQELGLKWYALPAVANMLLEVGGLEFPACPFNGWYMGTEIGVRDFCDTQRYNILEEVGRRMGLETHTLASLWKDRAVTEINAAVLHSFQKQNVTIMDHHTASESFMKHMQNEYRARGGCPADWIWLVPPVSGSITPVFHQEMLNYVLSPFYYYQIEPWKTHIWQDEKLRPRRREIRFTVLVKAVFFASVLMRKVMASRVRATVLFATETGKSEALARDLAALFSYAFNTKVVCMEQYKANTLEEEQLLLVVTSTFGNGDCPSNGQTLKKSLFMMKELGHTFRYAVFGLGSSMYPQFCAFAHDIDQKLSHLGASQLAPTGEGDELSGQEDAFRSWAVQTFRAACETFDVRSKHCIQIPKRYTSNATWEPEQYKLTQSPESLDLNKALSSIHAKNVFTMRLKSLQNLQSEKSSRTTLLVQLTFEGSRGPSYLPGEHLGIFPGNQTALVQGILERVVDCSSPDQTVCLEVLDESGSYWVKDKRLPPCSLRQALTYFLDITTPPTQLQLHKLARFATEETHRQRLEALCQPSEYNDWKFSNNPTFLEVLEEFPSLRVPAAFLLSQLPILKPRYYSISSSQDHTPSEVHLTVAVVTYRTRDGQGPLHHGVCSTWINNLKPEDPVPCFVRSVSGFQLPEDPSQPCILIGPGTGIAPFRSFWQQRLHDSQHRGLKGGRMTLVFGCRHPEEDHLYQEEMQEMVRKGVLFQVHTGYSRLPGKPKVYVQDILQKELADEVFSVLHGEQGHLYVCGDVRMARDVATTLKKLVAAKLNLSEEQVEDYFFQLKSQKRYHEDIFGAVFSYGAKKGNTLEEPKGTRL

A word on the pIC50: it is the IC50 on a negative log10 scale, so that one unit is a factor of ten. `CC(=N)NCc1cccc(CNC(=O)[C@@H](N)CS)c1`: the pIC50 in series [1] is under 5.00.
The inhibition is how much of the control response was suppressed. Consider `CC(=N)NCc1cccc(CN)c1` [1400W], for which the Activity entry in series [2] is “Dose-dependent effect”; in the series on C6 [10], 35.66%. For the same molecule, in series [3], the inhibition at 24 h, 1500 µM was at most 67.4%. The inhibition at 24 h, 2000 µM in series [4] was found to be 69.2%. Moreover, the growth at 1000 µM in the series with C6 [5] is 83.2%. For the same molecule, the growth at 1500 µM in the series with C6 [6] was 70.6%. Also, the growth at 2000 µM in the series on C6 [7] is 55.2%. Also, the inhibition result in the series with C6 [8] was “Dose-dependent effect”. For the same molecule, the growth at 500 µM with C6 [9] worked out at 68.9%. Also, the growth at 750 µM with C6 [11] worked out at 64.6%.
In the case of `CC(=N)NCc1cccc(CNC(=O)[C@@H](N)Cc2c[nH]c3ccccc23)c1`, the negative-log IC50 (pIC50) in series [1] was under 5.00.
For the molecule `CC(=N)NCc1cccc(CNC(=O)[C@@H](N)CO)c1`, the negative-log IC50 (pIC50) in series [1] is under 5.00.
Take `CC(=N)NCc1cccc(CNC(=O)[C@@H](N)C(C)C)c1`: the pIC50 in series [1] was under 5.00.
Take `CC[C@H](C)[C@H](N)C(=O)NCc1cccc(CNC(C)=N)c1`: the figures for the pIC50 (in [1]; on Nitric oxide synthase 3) were 6.77 and under 3.00, respectively. The Ratio IC50 in [12] is over 5850.
For the molecule `CC(=N)NCc1cccc(CNC(=O)[C@@H](N)CCCCN)c1`, the pIC50 in series [1] was 6.35; on Nitric oxide synthase 3 it was 3.68. Further, in [12], the Ratio IC50 was determined as 473.
In the case of `CC(=N)NCc1cccc(CNC(=O)[C@@H](N)CC(C)C)c1`, the pIC50 is 6.60 in series [1] and 3.52 on Nitric oxide synthase 3. In addition, in [12], the Ratio IC50 was 1180.
For the molecule `CSCC[C@H](N)C(=O)NCc1cccc(CNC(C)=N)c1`, the pIC50 in [1] is under 5.00.
Regarding `CC(=N)NCc1cccc(CNC(=O)[C@@H](N)Cc2ccccc2)c1`, the pIC50 in series [1] is under 5.00.
As for `COC(=O)[C@@H](N)CCCNC(=N)N[N+](=O)[O-]`, the inhibition entry in series [13] is “Active”.
For `CC(=N)NCc1cccc(CNC(=O)[C@@H](N)Cc2ccc(O)cc2)c1`, in series [1], the negative-log IC50 (pIC50) is under 5.00.
Take `CC(=N)NCc1cccc(CNC(=O)[C@H](C)N)c1`: the values for the pIC50 (in series [1]; at Nitric oxide synthase 3) were 6.56 and under 3.00, respectively. Besides, the Ratio IC50 in series [12] was over 3600.
In the case of `CC(=N)NCc1cccc(CNC(=O)[C@@H](N)[C@@H](C)O)c1`, the negative-log IC50 (pIC50) in series [1] was under 5.00.
As for `CC(=N)NCc1cccc(CNC(=O)[C@@H](N)Cc2cnc[nH]2)c1`, the figures for the pIC50 (in series [1]; at Nitric oxide synthase 3) were 6.27 and under 3.00, respectively. For the same molecule, in [12], the Ratio IC50 was over 1870.
The corresponding values for `CC(=N)NCc1cccc(CNC(=O)[C@@H](N)CCC(=O)O)c1` are 5.91, 5.00 and 8.
The corresponding values for `CC(=N)NCc1cccc(CNC(=O)[C@@H](N)CC(=O)O)c1` are 5.99, 3.48 and 323.
Turning to `CC(=N)NCc1cccc(CNC(=O)[C@@H](N)CCCNC(=N)N)c1`, the negative-log IC50 (pIC50) is 6.35 in series [1] and under 3.00 on Nitric oxide synthase 3. Besides, in series [12], the Ratio IC50 is over 2220.
As to `CC(=N)NCc1cccc(CNC(=O)[C@@H](N)CCC(N)=O)c1`, the pIC50 in series [1] is under 5.00.
Same read-out and setting: to `CC(=N)NCc1cccc(CNC(=O)[C@@H](N)CC(N)=O)c1` belongs under 5.00.
